# Laboratory results published in ChEMBL document CHEMBL4699559, “Discovery of CC-90011: A Potent and Selective Reversible Inhibitor of Lysine Specific Demethylase 1 (LSD1)” (J Med Chem, 2020).
# Activity calls are given as the source filed them. The calls are words filed in the database; no cut-off is given here.
# Experiments:
# [1] = AUC (0 to 6 hrs) in CD1 mouse at 10 mg/kg, po; assay type: ADME, organism-based; design: time < 6 hr, route oral, dose 10 mg/kg; details: in vivo
# hERG (KCNH2) = hERG (KCNH2) (Homo sapiens, UniProt Q12809); test: Inhibition of human ERG at 10 uM relative to control
# hERG (KCNH2), sequence (Q12809 whole entry): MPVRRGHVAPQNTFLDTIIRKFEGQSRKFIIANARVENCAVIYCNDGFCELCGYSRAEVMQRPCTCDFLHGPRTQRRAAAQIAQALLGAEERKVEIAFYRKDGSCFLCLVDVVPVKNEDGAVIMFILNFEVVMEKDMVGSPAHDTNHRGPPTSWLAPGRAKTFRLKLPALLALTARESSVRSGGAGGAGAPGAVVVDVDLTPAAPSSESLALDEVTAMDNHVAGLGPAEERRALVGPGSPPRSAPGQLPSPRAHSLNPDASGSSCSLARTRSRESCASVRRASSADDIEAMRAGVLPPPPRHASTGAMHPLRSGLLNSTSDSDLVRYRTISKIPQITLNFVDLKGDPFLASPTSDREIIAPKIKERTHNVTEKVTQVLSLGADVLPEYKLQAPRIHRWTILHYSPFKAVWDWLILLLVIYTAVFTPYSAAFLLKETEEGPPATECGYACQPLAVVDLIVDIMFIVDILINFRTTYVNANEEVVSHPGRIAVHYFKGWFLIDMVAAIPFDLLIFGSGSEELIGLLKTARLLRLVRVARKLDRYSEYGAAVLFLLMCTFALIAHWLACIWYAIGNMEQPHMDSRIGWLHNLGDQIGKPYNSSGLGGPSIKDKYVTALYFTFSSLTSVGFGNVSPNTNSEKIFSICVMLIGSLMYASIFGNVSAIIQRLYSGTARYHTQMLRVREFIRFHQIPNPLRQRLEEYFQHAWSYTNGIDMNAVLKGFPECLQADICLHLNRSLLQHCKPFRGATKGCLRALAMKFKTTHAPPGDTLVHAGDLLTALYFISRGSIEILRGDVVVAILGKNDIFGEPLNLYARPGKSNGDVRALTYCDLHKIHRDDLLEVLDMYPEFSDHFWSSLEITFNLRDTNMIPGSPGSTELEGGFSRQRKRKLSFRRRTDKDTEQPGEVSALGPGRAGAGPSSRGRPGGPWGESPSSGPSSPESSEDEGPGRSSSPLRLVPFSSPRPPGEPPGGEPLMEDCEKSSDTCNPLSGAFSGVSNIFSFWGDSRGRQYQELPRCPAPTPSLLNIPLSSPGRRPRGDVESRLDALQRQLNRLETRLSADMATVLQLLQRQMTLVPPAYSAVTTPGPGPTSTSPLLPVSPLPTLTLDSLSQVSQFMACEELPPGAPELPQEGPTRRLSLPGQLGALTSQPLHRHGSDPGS
# Kasumi 1 = test: Anti-proliferative activity in human Kasumi 1 cells incubated for 168 hrs by MTS assay; assay type: functional, cell-based; details: Kasumi 1, 168 h
# IMR-90 = test: Anti-proliferative activity in human IMR-90 cells incubated for 168 hrs by MTS assay; assay type: functional, cell-based; details: IMR-90, 168 h
# [2] = target: T1, Lysine-specific histone demethylase 2 (Homo sapiens) (UniProt Q8NB78); test: Inhibition of LSD2 (unknown origin) at; details: dose microM <10
# T1 sequence (whole entry): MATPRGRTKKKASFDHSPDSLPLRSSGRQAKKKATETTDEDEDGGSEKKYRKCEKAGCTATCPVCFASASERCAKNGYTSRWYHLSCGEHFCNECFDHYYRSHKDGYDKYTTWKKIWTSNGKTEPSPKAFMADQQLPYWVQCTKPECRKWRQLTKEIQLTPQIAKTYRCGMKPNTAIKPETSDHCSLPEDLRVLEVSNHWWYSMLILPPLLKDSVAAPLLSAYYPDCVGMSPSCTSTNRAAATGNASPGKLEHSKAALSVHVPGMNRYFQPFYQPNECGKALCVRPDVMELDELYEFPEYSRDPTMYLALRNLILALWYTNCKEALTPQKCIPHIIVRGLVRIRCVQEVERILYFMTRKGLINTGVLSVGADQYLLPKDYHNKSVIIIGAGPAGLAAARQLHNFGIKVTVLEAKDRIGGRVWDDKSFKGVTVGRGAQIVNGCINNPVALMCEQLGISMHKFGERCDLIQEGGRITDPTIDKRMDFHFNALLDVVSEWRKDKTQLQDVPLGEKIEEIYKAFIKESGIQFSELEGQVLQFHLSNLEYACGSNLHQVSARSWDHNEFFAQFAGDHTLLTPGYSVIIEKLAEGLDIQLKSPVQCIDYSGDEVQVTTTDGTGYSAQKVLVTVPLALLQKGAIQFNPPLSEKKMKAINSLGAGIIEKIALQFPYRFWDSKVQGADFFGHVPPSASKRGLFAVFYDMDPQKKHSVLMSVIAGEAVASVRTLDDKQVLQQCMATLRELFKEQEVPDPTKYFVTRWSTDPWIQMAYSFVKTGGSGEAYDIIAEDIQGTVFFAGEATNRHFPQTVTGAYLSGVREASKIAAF
# [3] = target: T2, Amine oxidase [flavin-containing] A (Homo sapiens, UniProt P21397); test: Inhibition of MAOA (unknown origin) at; details: dose <10 µM
# T2 sequence (P21397 whole entry): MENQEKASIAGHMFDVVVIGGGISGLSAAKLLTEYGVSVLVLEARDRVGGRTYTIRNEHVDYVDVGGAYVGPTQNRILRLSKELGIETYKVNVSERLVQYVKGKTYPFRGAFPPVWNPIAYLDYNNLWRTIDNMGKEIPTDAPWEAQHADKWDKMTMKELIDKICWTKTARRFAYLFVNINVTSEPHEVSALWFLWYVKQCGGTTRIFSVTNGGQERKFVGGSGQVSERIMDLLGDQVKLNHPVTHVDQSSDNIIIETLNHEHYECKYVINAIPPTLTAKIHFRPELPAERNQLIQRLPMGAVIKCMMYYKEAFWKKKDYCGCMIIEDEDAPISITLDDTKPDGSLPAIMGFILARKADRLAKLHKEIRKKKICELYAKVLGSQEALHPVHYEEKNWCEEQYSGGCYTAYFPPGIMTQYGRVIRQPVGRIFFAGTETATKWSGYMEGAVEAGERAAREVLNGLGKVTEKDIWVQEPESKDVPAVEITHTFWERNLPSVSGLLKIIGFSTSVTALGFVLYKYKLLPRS
# [4] = target: T3, Amine oxidase [flavin-containing] B (Homo sapiens, UniProt P27338); test: Inhibition of MAOB (unknown origin) at; details: dose <10 µM
# T3 sequence (P27338 whole entry): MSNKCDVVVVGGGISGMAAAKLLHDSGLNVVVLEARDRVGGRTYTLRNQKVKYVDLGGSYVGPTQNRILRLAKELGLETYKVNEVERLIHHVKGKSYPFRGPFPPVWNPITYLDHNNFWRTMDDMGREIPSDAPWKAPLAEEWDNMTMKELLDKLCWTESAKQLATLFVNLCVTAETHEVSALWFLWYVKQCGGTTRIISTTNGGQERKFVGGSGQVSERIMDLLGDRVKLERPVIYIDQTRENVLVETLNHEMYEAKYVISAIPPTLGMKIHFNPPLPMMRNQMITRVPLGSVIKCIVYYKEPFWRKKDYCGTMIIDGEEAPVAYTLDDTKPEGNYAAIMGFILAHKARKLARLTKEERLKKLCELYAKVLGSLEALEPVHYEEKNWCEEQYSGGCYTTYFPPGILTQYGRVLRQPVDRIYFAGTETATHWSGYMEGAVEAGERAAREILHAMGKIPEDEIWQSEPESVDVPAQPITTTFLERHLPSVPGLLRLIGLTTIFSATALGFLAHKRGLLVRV
# [5] = Clearance in CD1 mouse at 5 mg/kg, iv; assay type: ADME, organism-based; details: in vivo
# [6] = Volume of distribution at steady state in CD1 mouse at 5 mg/kg, iv; assay type: ADME, organism-based; details: in vivo, read-out: Vdss
# [7] = Half life in CD1 mouse at 5 mg/kg, iv; assay type: ADME, organism-based; details: in vivo
# [8] = AUC (0 to 24 hrs) in CD1 mouse at 5 mg/kg, po; assay type: ADME, organism-based; design: time < 24 hr, route oral, dose 5 mg/kg; details: in vivo
# [9] = Cmax in CD1 mouse at 5 mg/kg, po; assay type: ADME, organism-based; design: route oral, dose 5 mg/kg; details: in vivo
# [10] = Oral bioavailability in CD1 mouse at 5 mg/kg; assay type: ADME, organism-based; details: in vivo
# [11] = Protein binding in mouse plasma; assay type: ADME, cell-free; details: read-out: PPB (converted)
# Mus musculus [12] = test: Inhibition of GRP mRNA expression in Crl:CD1-Foxn1nu mouse xenografted with human NCI-H1417 cells at 2.5 mg/kg, po QD for 4 days and measured 24 hrs post last dose by qPCR analysis; assay type: functional, organism-based; details: time 5.0 day
# Mus musculus [13] = test: Inhibition of GRP mRNA expression in Crl:CD1-Foxn1nu mouse xenografted with human NCI-H1417 cells at 5 mg/kg, po QD for 4 days and measured 24 hrs post last dose by qPCR analysis; assay type: functional, organism-based; details: time 5.0 day
# NCI-H1417 [14] = test: Antitumor activity against human NCI-H1417 cells xenografted in Crl:CD1-Foxn1nu mouse assessed as tumor growth regression level at 2.5 mg/kg, po QD for 65 days relative to control; assay type: functional; details: time 65 day
# NCI-H1417 [15] = test: Antitumor activity against human NCI-H1417 cells xenografted in Crl:CD1-Foxn1nu mouse assessed as tumor growth regression level at 5 mg/kg, po QD for 65 days relative to control; assay type: functional; details: time 65 day
# [16] = Toxicity in Crl:CD1-Foxn1nu mouse xenografted with human NCI-H1417 cells assessed as weight gain level at 2.5 to 5 mg/kg, po QD for 65 days relative to control; assay type: organism-based; details: in vivo, 1560 h, dose 2.5-5 mg/kg, time 65 day
# [17] = Antitumor activity against human LXFS615 xenografted in Crl:CD1-Foxn1nu mouse patient-derived xenograft model assessed as inhibition of tumor growth at 5 mg/kg, po dosed daily for 30 days relative to control; assay type: functional; details: 720 h, time 30 day, read-out: TGI
# [18] = Toxicity in Crl:CD1-Foxn1nu mouse xenografted with human LXFS615 cells assessed as weight loss at 5 mg/kg, po dosed daily for 30 days relative to control; assay type: organism-based; details: in vivo, 720 h, time 30 day
# [19] = Antitumor activity against human LU2514 xenografted in Crl:CD1-Foxn1nu mouse patient-derived xenograft model assessed as inhibition of tumor growth at 5 mg/kg, po QD for 28 days relative to control; assay type: functional; details: 672 h, time 28 day, read-out: TGI
# [20] = Antitumor activity against human LU2514 xenografted in Crl:CD1-Foxn1nu mouse patient-derived xenograft model assessed as inhibition of tumor growth at 10 mg/kg, po QD for 28 days relative to control; assay type: functional; details: 672 h, time 28 day, read-out: TGI
# Mus musculus [21] = test: Induction of in-vivo cell differentiation in Crl:CD1-Foxn1nu mouse patient-derived xenograft model xenografted with human LU2514 assessed as loosening of cellular structure at 10 mg/kg, po QD for 28 days and measured 15 days post last dose by H and E staining based assay; assay type: functional, organism-based; details: time 43.0 day
# Mus musculus [22] = test: Induction of in-vivo cell differentiation in Crl:CD1-Foxn1nu mouse patient-derived xenograft model xenografted with human LU2514 assessed as reduction in nucleus to cytoplasm ratio at 10 mg/kg, po QD for 28 days and measured 15 days post last dose by H and E staining based assay; assay type: functional, organism-based; details: time 43.0 day
# Mus musculus [23] = test: Induction of in-vivo cell differentiation in Crl:CD1-Foxn1nu mouse patient-derived xenograft model xenografted with human LU2514 assessed as increase in apoptotic bodies at 10 mg/kg, po QD for 28 days and measured 15 days post last dose by H and E staining based assay; assay type: functional, organism-based; details: time 43.0 day
smiles,measurement,setting,value
COc1ccc(-c2c(-c3ccc(C#N)cc3)nc(N3CCC(N)CC3)n(C)c2=O)cc1,AUC(0-t) at 6 h,[1],6.1 µM·h
same,inhibition at 10 µM,hERG (KCNH2),67%
Cc1ccc(-c2cnc(N3CC[C@@H]4NCC[C@@H]4C3)nc2-c2ccc(C#N)cc2)cc1,AUC(0-t) at 6 h,[1],14.5 µM·h
same,inhibition at 10 µM,hERG (KCNH2),95%
Cc1ccc(-c2c(-c3ccc(C#N)cc3)nc(N3CCC(N)CC3)n(C)c2=O)cc1,AUC(0-t) at 6 h,[1],10.5 µM·h
same,inhibition at 10 µM,hERG (KCNH2),83%
Cc1ccc(-c2c(-c3ccc(C#N)cc3)nc(N3CCC(N)CC3)c(=O)n2C)cc1,AUC(0-t) at 6 h,[1],7.3 µM·h
same,inhibition at 10 µM,hERG (KCNH2),95%
COc1ccc(-c2c(-c3ccc(C#N)cc3)nc(N3CCC(N)CC3)n(C)c2=O)cc1F,AUC(0-t) at 6 h,[1],3 µM·h
same,inhibition at 10 µM,hERG (KCNH2),48%
Cc1ccc(-c2cnc(C[C@H]3CCNC3)nc2-c2ccc(C#N)cc2)cc1,AUC(0-t) at 6 h,[1],1 µM·h
same,inhibition at 10 µM,hERG (KCNH2),91%
COc1ccc(-c2c(-c3ccc(C#N)c(F)c3)nc(N3CCC(N)CC3)n(C)c2=O)cc1F.O=S(=O)(O)c1ccccc1 [PULRODEMSTAT BESILATE],AUC(0-t) at 6 h,[1],2.6 µM·h
same,inhibition at 10 µM,hERG (KCNH2),59%
same,EC50,Kasumi 1,2 nM
same,EC50,IMR-90,> 10000 nM
same,inhibition,[2],inactive
same,inhibition (INH),[3],Not Active
same,inhibition (INH),[4],Not Active
same,clearance,[5],32.4 mL/min/kg
same,Vd,[6],7.5 L/kg
same,half-life,[7],2 h
same,AUC(0-t) at 24 h,[8],1.8 µM·h
same,Cmax,[9],360 nM
same,bioavailability,[10],32%
same,fraction unbound,[11],0.08
same,inhibition,Mus musculus [12],Active
same,inhibition,Mus musculus [13],Active
same,Activity,NCI-H1417 [14],159%
same,Activity,NCI-H1417 [15],178%
same,Activity,[16],<= 7%
same,inhibition in vivo at 5 mg/kg,[17],78%
same,Activity,[18],< 1%
same,inhibition in vivo at 5 mg/kg,[19],39%
same,inhibition in vivo at 10 mg/kg,[20],56%
same,Activity,Mus musculus [21],Active
same,Activity,Mus musculus [22],Active
same,Activity,Mus musculus [23],Active
